# Source: PubChem BioAssay AID330 (DTP/NCI, 2004)
# Where “and” joins values, the source holds several entries; their conditions need not be identical. Equal values may be shown once. Inconclusive results and toxic doses are left out. Peptide text beside a SMILES is read from it. * marks the point of attachment. Cbz = O=C(OCc1ccccc1)*; OBn = c1ccc(CO*)cc1
# System: P388 leukemia ip, CD2F1 mice, survival T/C
# Assay: NCI In Vivo Anticancer Drug Screen. Data for tumor model P388 Leukemia (intraperitoneal) in CD2F1 (CDF1) mice
# Conditions: endpoint: median survival time, higher = longer survival
# Summary of the method: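 Mice carrying the transplanted tumor received test compound or vehicle. Survival was recorded in each group, and the value is the treated-group measurement divided by that of the vehicle-treated control group.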
# [1] = dose: 50.0 mg/kg/injection, schedule: Q01DX005 (ip), vehicle: Klucel (hydroxypropylcellulose) (HPC)
# [2] = dose: 100.0 mg/kg/injection, schedule: Q01DX005 (ip), vehicle: Klucel (hydroxypropylcellulose) (HPC)
# [3] = dose: 200.0 mg/kg/injection, schedule: Q01DX005 (ip), vehicle: Klucel (hydroxypropylcellulose) (HPC)
compound,measurement,setting,value
Cc1nc2ncn(-c3ccccc3)c2c(=O)n1C,T/C,[1],95 % of control
same,T/C,[2],90 % of control
same,T/C,[3],95 % of control
O=C(Nc1ccc(Cl)cc1)Sc1nnc2c(n1)[nH]c1ccccc12,T/C,[1],103 % of control
same,T/C,[2],111 % of control
same,T/C,[3],103 % of control
CCN(CC)CCOc1ccc(N(CCCl)CCCl)cc1,T/C,"dose: 3.13 mg/kg/injection, schedule: Q04DX003 (ip), vehicle: Klucel (hydroxypropylcellulose) (HPC)",117 % of control
same,T/C,"dose: 12.5 mg/kg/injection, schedule: Q04DX003 (ip), vehicle: Klucel (hydroxypropylcellulose) (HPC)",153 % of control and 168 % of control
same,T/C,"dose: 25.0 mg/kg/injection, schedule: Q04DX003 (ip), vehicle: Klucel (hydroxypropylcellulose) (HPC)",90 % of control
CCN(CC)C(=Nc1ccc(NC(=O)c2ccc(C(=O)Nc3ccc(N=C(c4ccccc4)N(CC)CC)cc3)cc2)cc1)c1ccccc1,T/C,[1],96 % of control
same,T/C,[2],97 % of control
same,T/C,[3],96 % of control
CCN(CC)Cc1cc(N=Nc2ccc([N+](=O)[O-])c(OC)c2)c2ccccc2c1O,T/C,"dose: 50.0 mg/kg/injection, schedule: Q01DX009 (ip), vehicle: Klucel (hydroxypropylcellulose) (HPC)",99 % of control
same,T/C,"dose: 100.0 mg/kg/injection, schedule: Q01DX009 (ip), vehicle: Klucel (hydroxypropylcellulose) (HPC)",95 % of control
same,T/C,"dose: 200.0 mg/kg/injection, schedule: Q01DX009 (ip), vehicle: Klucel (hydroxypropylcellulose) (HPC)",97 % of control
COc1ccc(-c2c(C(N)=O)cnc(C)c2C)c(OCc2ccccc2)c1OC,T/C,"dose: 0.05 mg/kg/injection, schedule: Q01DX009 (ip), vehicle: water",104 % of control
same,T/C,"dose: 0.1 mg/kg/injection, schedule: Q01DX009 (ip), vehicle: water",117 % of control
same,T/C,"dose: 0.2 mg/kg/injection, schedule: Q01DX009 (ip), vehicle: water",104 % of control
same,T/C,"dose: 0.4 mg/kg/injection, schedule: Q01DX009 (ip), vehicle: water",103 % of control and 117 % of control
same,T/C,"dose: 0.8 mg/kg/injection, schedule: Q01DX009 (ip), vehicle: water",106 % of control
same,T/C,"dose: 1.6 mg/kg/injection, schedule: Q01DX009 (ip), vehicle: water",106 % of control
same,T/C,"dose: 3.2 mg/kg/injection, schedule: Q01DX009 (ip), vehicle: water",109 % of control
same,T/C,"dose: 6.25 mg/kg/injection, schedule: Q01DX009 (ip), vehicle: other",98 % of control
same,T/C,"dose: 6.4 mg/kg/injection, schedule: Q01DX009 (ip), vehicle: water",109 % of control
same,T/C,"dose: 12.5 mg/kg/injection, schedule: Q01DX009 (ip), vehicle: other",101 % of control
same,T/C,"dose: 25.0 mg/kg/injection, schedule: Q01DX009 (ip), vehicle: other",103 % of control
same,T/C,"dose: 50.0 mg/kg/injection, schedule: Q01DX009 (ip), vehicle: other",105 % of control
same,T/C,"dose: 100.0 mg/kg/injection, schedule: Q01DX009 (ip), vehicle: other",105 % of control
same,T/C,"dose: 200.0 mg/kg/injection, schedule: Q01DX009 (ip), vehicle: other",104 % of control
same,T/C,"dose: 400.0 mg/kg/injection, schedule: Q01DX009 (ip), vehicle: other",107 % of control
NCCCCC(NC(=O)OCc1ccccc1)C(=O)NC(CCCCN)C(=O)NC(CCCCN)C(=O)NC(Cc1c[nH]c2ccccc12)C(=O)OCc1ccccc1 (centres undefined) (Cbz-KKKW-OBn; configuration not given here),T/C,[1],100 % of control
same,T/C,[2],96 % of control
same,T/C,[3],100 % of control
CN=C(C)c1c(O)n(-c2ccccc2)[nH]c1=O,T/C,"dose: 100.0 mg/kg/injection, schedule: Q04DX002 (ip), vehicle: Klucel (hydroxypropylcellulose) (HPC)",96 % of control
same,T/C,"dose: 200.0 mg/kg/injection, schedule: Q04DX002 (ip), vehicle: Klucel (hydroxypropylcellulose) (HPC)",102 % of control
same,T/C,"dose: 400.0 mg/kg/injection, schedule: Q04DX002 (ip), vehicle: Klucel (hydroxypropylcellulose) (HPC)",90 % of control
CCOC(=O)CCCCCCN(/C=C(\C)CN1c2c(nc(N)[nH]c2=O)NCC1CNc1ccc(C(=O)NC(CCC(=O)O)C(=O)O)cc1)C(C)=O (centres undefined),T/C,"dose: 50.0 mg/kg/injection, schedule: Q04DX003 (ip), vehicle: saline",97 % of control
same,T/C,"dose: 100.0 mg/kg/injection, schedule: Q04DX003 (ip), vehicle: saline",99 % of control
same,T/C,"dose: 200.0 mg/kg/injection, schedule: Q04DX003 (ip), vehicle: saline",98 % of control
